The values that follow come from patent publication US6967196B1, “Sulfonamide compounds and uses thereof” (Bristol-Myers Squibb Company, priority 1999, dated 2005).

The first test concerns amyloid β production in transfected H4 (human neuroglioma) cells stably expressing APP constructs. The test is described as follows: In vitro cell-based assay of inhibitors of amyloid β production (ELISA). The note with it: transfected H4 cells stably expressing APP; approx. 16 h incubation; amyloid β in medium by ELISA; read-out: ACTIVITY (IC50, inhibition of amyloid β production). Summed up: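 Transfected H4 cells stably expressing wild-type or variant APP were exposed to compounds (initial screen 10-100 μM) for about 16 h. Secreted Aβ in the medium was quantified by sandwich ELISA (C-terminal-specific monoclonal capture, N-terminal-specific polyclonal detection) against an Aβ standard curve; dose-response runs followed for actives.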
Consider “N-{3-[2-({[(4-chlorophenyl)sulfonyl]-2,5-difluoroanilino}methyl)phenoxy]propyl}-4-fluoro-N-methylbenzamide [Example 747]”, for which the concentration for half-maximal inhibition (IC50) fell in the range of 100 to 500 nM. “N-{3-[2-({[(4-chlorophenyl)sulfonyl]-2,5-difluoroanilino}methyl)phenoxy]propyl}-4-iodo-N-methylbenzamide [Example 765]”: the IC50 lay in the range of 100 to 500 nM. For “N-{3-[2-({[(4-chlorophenyl)sulfonyl]-2,5-difluoroanilino}methyl)phenoxy]propyl}-N,2-dimethylbenzamide [Example 680]”, the IC50 fell in the range of 100 to 500 nM. Take “N-{3-[2-({[(4-chlorophenyl)sulfonyl]-2,5-difluoroanilino}methyl)phenoxy]propyl}-N,3-dimethylbenzamide [Example 696]”: the concentration for half-maximal inhibition (IC50) lay within 100 to 500 nM.

With “N-{3-[2-({[(4-chlorophenyl)sulfonyl]-2,5-difluoroanilino}methyl)phenoxy]propyl}-N-methylbenzamide [Example 800]”, the half-maximal inhibitory concentration (IC50) fell in the range of 100 to 500 nM. With “N-{3-[2-({[(4-chlorophenyl)sulfonyl]-2,5-difluoroanilino}methyl)phenoxy]propyl}-N-methylbutanamide [Example 638]”, the IC50 fell in the range of 100 to 500 nM. Still for that read-out and setting: with “N-{4-[2-(1-{[(4-chlorophenyl)sulfonyl]-2,5-difluoroanilino}ethyl)phenoxy]butyl}-2-cyclohexyl-N-ethylacetamide [Example 785]” the figure was 100 to 500 nM; with “N-{4-[2-(1-{[(4-chlorophenyl)sulfonyl]-2,5-difluoroanilino}ethyl)phenoxy]butyl}-2-ethyl-N-methylhexanamide [Example 676]”, 100 to 500 nM. For the substance “N-{4-[2-(1-{[(4-chlorophenyl)sulfonyl]-2,5-difluoroanilino}ethyl)phenoxy]butyl}-N,2,4-trimethylpentanamide [Example 700]”, the concentration for half-maximal inhibition (IC50) is 100 to 500 nM. For “N-{4-[2-(1-{[(4-chlorophenyl)sulfonyl]-2,5-difluoroanilino}ethyl)phenoxy]butyl}-N-ethyl-2-thiophenecarboxamide [Example 756]”, the IC50 lay within 100 to 500 nM. On the same count and under the same terms, with “N-{4-[2-(1-{[(4-chlorophenyl)sulfonyl]-2,5-difluoroanilino}ethyl)phenoxy]butyl}-N-ethylacrylamide [Example 739]” the figure was 100 to 500 nM; with “N-{4-[2-(1-{[(4-chlorophenyl)sulfonyl]-2,5-difluoroanilino}ethyl)phenoxy]butyl}-N-ethylbenzamide [Example 767]”, 100 to 500 nM. For the substance “S-ethyl 4-[2-(1-{[(4-chlorophenyl)sulfonyl]-2,5-difluoroanilino}ethyl)phenoxy]butyl(ethyl)thiocarbamate [Example 790]”, the IC50 lay in the range of 100 to 500 nM. “S-ethyl-3-[2-({[(4-chlorophenyl)sulfonyl]-2,5-difluoroanilino}methyl)phenoxy]propyl(methyl)thiocarbamate [Example 757]”: the half-maximal inhibitory concentration (IC50) was in the range of 100 to 500 nM. Take “S-methyl 2-[2-(1-{[(4-chlorophenyl)sulfonyl]-2,5-difluoroanilino}ethyl)phenoxy]ethyl(ethyl)thiocarbamate [Example 771]”: the IC50 is 100 to 500 nM. For “S-methyl 4-[2-(1-{3-[2-(1-{[(4-chlorophenyl)sulfonyl]-2,5-difluoroanilino}ethyl)phenoxy]butyl(ethyl)thiocarbamate [Example 714]”, the IC50 is 100 to 500 nM. Same read-out and setting: the figure for “benzyl 3-[2-(1-{[(4-chlorophenyl)sulfonyl]-2,5-difluoroanilino}ethyl)phenoxy]propyl(methyl)carbamate [Example 678]” is 100 to 500 nM; for “isobutyl 3-[2-(1-{[(4-chlorophenyl)sulfonyl]-2,5-difluoroanilino}ethyl)phenoxy]propyl(methyl)carbamate [Example 677]” it is 100 to 500 nM. With “methyl (2S)-2-[[2-((1R)-1-{[(4-chlorophenyl)sulfonyl]-2,5-difluoroanilino}ethyl)benzyl](methyl)amino]propanoate [Example 779]”, the 50% inhibitory concentration (IC50) is 100 to 500 nM. Regarding “methyl [[2-((1R)-1-{[(4-chlorophenyl)sulfonyl]-2,5-difluoroanilino}ethyl)benzyl]- [Example 798]”, the half-maximal inhibitory concentration (IC50) was in the range of 100 to 500 nM.

Still in this test, the particulars now being: transfected H4 cells stably expressing APP; approximately 16 hours incubation; amyloid β in medium by ELISA; read-out: ACTIVITY (IC50, inhibition of amyloid β production).
With “N-{3-[2-({[(4-chlorophenyl)sulfonyl]-2,5-difluoroanilino}methyl)phenoxy]propyl}-4-ethoxy-N-methylbenzamide [Example 1010]”, the IC50 was over 500 nM. Still for that read-out and setting: the figure for “N-{3-[2-({[(4-chlorophenyl)sulfonyl]-2,5-difluoroanilino}methyl)phenoxy]propyl}-N,4-dimethyl-3-nitrobenzamide [Example 907]” is over 500 nM; for “N-{3-[2-({[(4-chlorophenyl)sulfonyl]-2,5-difluoroanilino}methyl)phenoxy]propyl}-N,4-dimethylbenzamide [Example 893]” it is over 500 nM. Same read-out and setting: the figure for “N-{3-[2-({[(4-chlorophenyl)sulfonyl]-2,5-difluoroanilino}methyl)phenoxy]propyl}-N-methyl-1,3-benzodioxole-5-carboxamide [Example 903]” is over 500 nM; for “N-{3-[2-({[(4-chlorophenyl)sulfonyl]-2,5-difluoroanilino}methyl)phenoxy]propyl}-N-methyl-1-naphthamide [Example 821]” it is 100 to 500 nM. Turning to “N-{3-[2-({[(4-chlorophenyl)sulfonyl]-2,5-difluoroanilino}methyl)phenoxy]propyl}-N-methyl-2-naphthamide [Example 810]”, the IC50 lay within 100 to 500 nM. With “N-{3-[2-({[(4-chlorophenyl)sulfonyl]-2,5-difluoroanilino}methyl)phenoxy]propyl}-N-methyl-2-phenylcyclopropanecarboxamide [Example 917]”, the concentration for half-maximal inhibition (IC50) was over 500 nM. For “N-{3-[2-({[(4-chlorophenyl)sulfonyl]-2,5-difluoroanilino}methyl)phenoxy]propyl}-N-methyl-3-(trifluoromethyl)benzamide [Example 891]”, the half-inhibitory concentration (IC50) is over 500 nM.

As to “N-{3-[2-({[(4-chlorophenyl)sulfonyl]-2,5-difluoroanilino}methyl)phenoxy]propyl}-N-methyl-4-(trifluoromethoxy)benzamide [Example 873]”, the IC50 lay within 100 to 500 nM. For “N-{3-[2-({[(4-chlorophenyl)sulfonyl]-2,5-difluoroanilino}methyl)phenoxy]propyl}-N-methyl-4-(trifluoromethyl)benzamide [Example 898]”, the IC50 was over 500 nM.

For the substance “N-{3-[2-({[(4-chlorophenyl)sulfonyl]-2,5-difluoroanilino}methyl)phenoxy]propyl}-N-methyl-4-nitrobenzamide [Example 872]”, the half-maximal inhibitory concentration (IC50) lay within 100 to 500 nM.

Turning to “N-{4-[2-(1-{[(4-chlorophenyl)sulfonyl]-2,5-difluoroanilino}ethyl)phenoxy]butyl}-3-cyclopentyl-N-ethylpropanamide [Example 943]”, the IC50 is over 500 nM. On to “N-{4-[2-(1-{[(4-chlorophenyl)sulfonyl]-2,5-difluoroanilino}ethyl)phenoxy]butyl}-N-ethylcyclopropanecarboxamide [Example 959]”, for which the half-inhibitory concentration (IC50) was over 500 nM. Still for that read-out and setting: with “N-{4-[2-(1-{[(4-chlorophenyl)sulfonyl]-2,5-difluoroanilino}ethyl)phenoxy]butyl}-N-methyl-1-adamantanecarboxamide [Example 846]” the figure was 100 to 500 nM; with “N-{4-[2-(1-{[(4-chlorophenyl)sulfonyl]-2,5-difluoroanilino}ethyl)phenoxy]butyl}-N-methylacrylamide [Example 843]”, 100 to 500 nM.

As for “S-ethyl 2-[2-(1-{[(4-chlorophenyl)sulfonyl]-2,5-difluoroanilino}ethyl)phenoxy]ethyl(methyl)thiocarbamate [Example 856]”, the IC50 was in the range of 100 to 500 nM.

Consider “S-ethyl 4-[2-(1-{[(4-chlorophenyl)sulfonyl]-2,5-difluoroanilino}ethyl)phenoxy]ethyl(ethyl)thiocarbamate [Example 830]”, for which the IC50 was 100 to 500 nM.

With “S-methyl 2-[2-(1-{[(4-chlorophenyl)sulfonyl]-2,5-difluoroanilino}ethyl)phenoxy]ethyl(methyl)thiocarbamate [Example 983]”, the half-inhibitory concentration (IC50) was over 500 nM. The same measure, in the same setting: with “S-{3-[2-({[(4-chlorophenyl)sulfonyl]-2,5-difluoroanilino}methyl)phenoxy]propyl} ethanethioate [Example 1014]” the figure was over 500 nM; with “[2-((1R)-1-{[(4-chlorophenyl)sulfonyl]-2,5-difluoroanilino}ethyl)-5-fluorophenyl]methanesulfonic acid [Example 1009]”, over 500 nM; with “[({4-[2-((1R)-1-{[(4-chlorophenyl)sulfonyl]-2,5-difluoroanilino}ethyl)-5-fluorophenyl]butanoyl}amino)oxy]acetic acid [Example 1077]”, over 500 nM. On the same count and under the same terms, the figure for “ethyl 3-(2-{[(phenylsulfonyl)anilino]methyl}phenyl)propanoate [Example 995]” is over 500 nM; for “ethyl (2E)-3-[2-({[(4-chlorophenyl)sulfonyl]anilino}methyl)phenyl]-2-propenoate [Example 971]” it is over 500 nM; for “ethyl (2R)-2-{[(4-chlorophenyl)sulfonyl]-2,5-difluoroanilino}propanoate [Example 1060]” it is over 500 nM. As for “methyl 3-[2-((1R)-1-{[(4-chlorophenyl)sulfonyl]-2,5-difluoroanilino}ethyl)-5-fluorophenyl]propanoate [Example 1065]”, the IC50 was over 500 nM.

For “methyl [{2-[2-(1-{[(4-chlorophenyl)sulfonyl]-2,5-difluoroanilino}ethyl)phenoxy]ethyl}(methyl)amino](oxo)acetate [Example 929]”, the IC50 is over 500 nM.
